Data set [1] has as its system Folsomia candida. The settings on record: chronic/long-term; duration: 28 days; mortality.
Data set [2] relates to Rattus norvegicus. The settings on record: for LD50: acute, mortality.
The subject of data set [3] is Tagia sp. The settings on record: chronic/long-term, duration: 56 days.
For data set [4], the system named is Canidae. The settings on record: oral, Dog Other, body weight.
Data set [5] deals with Colinus virginianus.
The test system of data set [6] is Daphnia magna. Conditions: chronic/long-term; duration: 21 days; reproduction.
The subject of data set [7] is Oncorhynchus mykiss. The settings on record: mortality.
The subject of data set [8] is Plant. Conditions: chronic/long-term; duration: 4 months.
Data set [9] deals with Anas platyrhynchos. Conditions: reproductive.
In data set [10] the test system is Typhlodromus pyri. The settings on record: acute; mortality.
Data set [11] has as its system Apis mellifera. Conditions: acute, duration: 48 hours, mortality.
[12] abbreviates: chronic, duration: 2 years, oral, diet, organ weight.
The mark [13] stands for this setting: reproduction developmental, reproduction.
[14] abbreviates: subchronic, duration: 90 days, oral, diet, F, organ weight.

One may read the NOAEL as the highest dose or exposure tested at which no adverse effect was seen. By LC50 is commonly meant the concentration that kills 50% of the test population.

The structures appear in SMILES notation. Where “and” joins values, the source holds several entries; their conditions need not be identical. Equal entries are not always repeated.

On to `CCOCCN(C(=O)CS(=O)(=O)O)C(=C(C)C)c1ccccc1`, for which the NOEC amounted to 93.3 mg/kg in [1] and 100 mg/kg in data set [3] (growth). The same molecule yielded an LD50 in [2] (oral) of over 2000 mg/kg-day. The no observed adverse effect level (NOAEL) in data set [2] (short-term, duration: 4 weeks, oral, diet) was found to be 410 mg/kg-day.
Regarding `CCOCCN(C(C)=O)C(=C(C)C)c1ccccc1`, the NOEC in [1] turned out to be 50 mg/kg; in [3] (growth), 30 mg/kg. In addition, the NOAEL in data set [2] (setting [12]) came out at 1 mg/kg-day; in [2] (setting [13]) it was 8 mg/kg-day; in data set [2] (setting [14]), 8 mg/kg-day; in data set [4] (subchronic, duration: 90 days), 8 mg/kg-day.
For `CC(C)=C(c1ccccc1)N(CC(=O)O)C(=O)CS(=O)(=O)O` [N-(2-Methyl-1-phenylprop-1-en-1-yl)-N-(sulfoacetyl)glycine], the NOEC came out at 100 mg/kg in [1] and 60 mg/kg in data set [3] (growth).
In the case of `CCOCCN(C(=O)CCl)C(=C(C)C)c1ccccc1` [Pethoxamid], the LD50 is 872 mg/kg-day in [5] (acute, oral, mortality); 983 mg/kg-day in data set [2] (oral, M); over 200 µg/piece in data set [11] (dermal); over 200 µg/piece in [11] (oral, unspecified). Further, the NOEL in data set [5] (reproduction developmental) is 100 mg/kg-day; in data set [9] it was 396 mg/kg-day. Moreover, the NOAEL in data set [2] (setting [12]) came to 1 mg/kg-day; in data set [2] (reproduction developmental, oral, diet, F, reproduction) it was 24 mg/kg-day; in data set [2] (setting [13]), 8 mg/kg-day; in data set [2] (setting [14]) it was 8 mg/kg-day; in data set [4] (chronic, duration: 1 years), 2 mg/kg-day; in [4] (subchronic, duration: 90 days) it was 8 mg/kg-day. Moreover, the NOEC in data set [6] was 2.8 mg/L; in data set [7] (chronic/long-term, duration: 94 days) it was 0.0924 mg/L; in data set [3] (reproduction), 0.8 mg/kg. Besides, in data set [7] (acute, duration: 96 hours), the median lethal concentration (LC50) was 2.2 µg/mL and 2.19 µg/mL. The same molecule registered an NOAEC in data set [8] of 8 µg/L. Besides, in data set [10], the LEC was at most 1200 g/ha.

Values taken from EPA's ToxValDB 9.5 (doi:10.2903/j.efsa.2017.4981).
